PMC3842914, “Meleagrin, a New FabI Inhibitor from Penicillium chryosogenum with at Least One Additional Mode of Action” (PLoS ONE, 2013)
≈ marks a conversion by molar mass, not a printed value. Like-named read-outs stand apart in the source and are kept apart here.

What was measured:
[1] = tested on: E. coli EW1b; assay: Overexpression assay, MIC for pump-negative (tolC) E. coli EW1b; type: cell-based; settings: Escherichia coli
Procedure: (§1) Whole-cell antimicrobial activity was determined by broth microdilution as described previously. The test strains except for S. pneumoniae were grown to mid-log phase in Mueller–Hinton broth and diluted 1,000-fold in the same medium. Cells (10^5/mL) were inoculated into Mueller–Hinton broth and dispensed at 0.2 mL/well into a 96-well microtiter plate. S. pneumoniae was grown in tryptic soy broth supplemented with 5% sheep blood. MICs were determined in triplicate by serial 2-fold dilutions of test compounds. […] Bacterial growth was determined by measuring the absorption at 650 nm by using a microtiter ELISA reader.
(§2) An overexpression assay using S. aureus RN4220, S. aureus RN4220 (pE194), and S. aureus RN4220 (pE194-fabI) was conducted to perform target validation of FabI inhibitors as described previously. Additionally, both fabI- and fabK-overexpressing E. coli were constructed to test a multitarget effect of the compounds. The wild-type fabI gene from the genomic DNA of E. coli W3110 was amplified by PCR by using the primers 5′-[…]-3′ and 5′-[…]-3′. The wild-type fabK gene from the genomic DNA of S. pneumoniae KCTC 5412 was amplified by PCR by using the primers 5′-[…]-3′ and 5′-[…] […]-3′. The resulting products were cloned into the pBAD-TOPO TA expression vector (Invitrogen, Carlsbad, CA, USA) to yield the pBAD-fabI and pBAD-fabK recombinant plasmids, which placed the expression of the genes fabI and fabK, respectively, under the control of the arabinose promoter. Recombinant pBAD-fabI and pBAD-fabK were then introduced into the pump-negative (tolC) E. coli EW1b via electroporation to generate E. coli EW1b (pBAD-fabI) and E. coli EW1b (pBAD-fabK), respectively.

[2] = tested on: E. coli EW1b(pBAD-fabI); assay: Overexpression assay, MIC for fabI-overexpressing E. coli EW1b (pBAD-fabI); type: cell-based; settings: Escherichia coli
Procedure: as §1, §2

[3] = tested on: E. coli EW1b(pBAD-fabK); assay: Overexpression assay, MIC for fabK-overexpressing E. coli EW1b (pBAD-fabK); type: cell-based; settings: Escherichia coli
Procedure: as §1, §2

[4] = tested on: E. coli EW1b(pBAD); assay: Overexpression assay, MIC for vector-containing E. coli EW1b (pBAD); type: cell-based; settings: Escherichia coli
Procedure: as §1, §2

[5] = tested on: E. coli KCTC 1924; assay: MIC by broth microdilution, E. coli KCTC 1924; type: cell-based; settings: Escherichia coli, KCTC1924, read-out: MIC E. coli
Procedure: as §1

[6] = target: T1, E. coli FabI (Escherichia coli, UniProt P0AEK4); assay: E. coli FabI enzyme assay (NADH as cofactor); type: biochemical
T1 construct: made in house
Excerpt: (§3) S. aureus FabI and E. coli FabI enzymes were cloned, overexpressed, and purified as described previously. The wild-type fabK gene was amplified by PCR from genomic DNA obtained from Streptococcus pneumoniae KCTC 5412 by using the primers 5′-[…]-3′ and 5′-[…]-3′, which contained NdeI and XhoI restriction sites, respectively. After the DNA sequence was confirmed, the gene was cloned into the pET22b vector (Novagen, Gibbstown, NJ, USA). The construct was transformed into E. coli BL21 (DE3) for expression following induction with isopropylthiogalactoside. The C-terminal His-tagged protein was purified as described previously. Assays were conducted in half-area, 96-well microtiter plates. The compounds were dissolved in DMSO and evaluated in 100-μL assay mixtures containing components specific for each enzyme (see below). Reduction of the trans-2-octenoyl N-acetylcysteamine (t-o-NAC thioester) substrate analog was measured spectrophotometrically following the utilization of NADH or NADPH at 340 nm at 30°C for the linear period of the assay. S. aureus FabI assays contained 50 mM sodium acetate (pH 6.5), 200 μM t-o-NAC thioester, 200 μM NADPH, and 150 nM S. aureus FabI.
(§4) NADH was used as a cofactor rather than NADPH for the E. coli FabI assay. Substrate concentrations used for the Lineweaver–Burk plot were 100, 200, 300, and 400 μM, whereas the concentrations of the cofactor were 100, 200, 400, and 600 μM. The rate of decrease in the amount of NADPH in each reaction was measured with a microtiter enzyme-linked immunosorbent assay (ELISA) reader by using the SOFTmax PRO software (Molecular Devices, Sunnyvale, CA, USA). The inhibitory activity was calculated according to the following formula: % of inhibition = 100× [1− (rate in the presence of compound/rate in the untreated control)]. IC50 values were calculated by fitting the data to a sigmoid equation. An equal volume of DMSO solvent was used for the untreated control. FabK assays contained 100 mM sodium acetate (pH 6.5), 2% glycerol, 200 mM NH4Cl, 50 µM t-o-NAC thioester, 200 µM NADH, and 150 nM S. pneumoniae FabK.

[7] = tested on: S. pneumoniae KCTC 3932; assay: MIC by broth microdilution, S. pneumoniae KCTC 3932; type: cell-based; settings: Streptococcus pneumoniae, KCTC3932, read-out: MIC S. pneumoniae
Procedure: as §1

[8] = target: T2, S. pneumoniae FabK (Streptococcus pneumoniae, UniProt Q9FBC5); assay: S. pneumoniae FabK enzyme assay; type: biochemical
T2 sequence (Q9FBC5 1-324): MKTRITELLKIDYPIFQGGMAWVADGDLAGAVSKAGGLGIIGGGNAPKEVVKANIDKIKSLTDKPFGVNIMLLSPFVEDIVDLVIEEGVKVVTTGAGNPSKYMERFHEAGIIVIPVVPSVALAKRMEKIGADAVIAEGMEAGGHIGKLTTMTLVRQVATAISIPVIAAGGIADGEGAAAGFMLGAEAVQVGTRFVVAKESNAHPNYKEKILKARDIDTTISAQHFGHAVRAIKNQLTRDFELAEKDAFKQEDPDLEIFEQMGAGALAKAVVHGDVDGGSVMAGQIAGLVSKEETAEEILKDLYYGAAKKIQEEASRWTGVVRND
Excerpt: as §3, §4

[9] = target: T3, S. aureus FabI (Staphylococcus aureus, UniProt Q6GI75); assay: S. aureus FabI enzyme assay (NADPH use at 340 nm, t-o-NAC thioester substrate); type: biochemical
T3 construct: made in house
T3 sequence (Q6GI75 1-256): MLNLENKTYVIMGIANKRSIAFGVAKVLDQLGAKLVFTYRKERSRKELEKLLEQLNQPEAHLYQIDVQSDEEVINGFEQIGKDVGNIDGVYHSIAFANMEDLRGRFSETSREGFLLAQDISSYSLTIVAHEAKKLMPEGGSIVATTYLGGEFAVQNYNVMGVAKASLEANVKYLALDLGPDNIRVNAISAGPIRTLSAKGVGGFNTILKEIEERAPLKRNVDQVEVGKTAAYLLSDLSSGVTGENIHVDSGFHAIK
Excerpt: as §3, §4

[10] = tested on: S. aureus RN4220; assay: MIC by broth microdilution, S. aureus RN4220 (wild type); type: cell-based, Staphylococcus aureus; settings: Staphylococcus aureus; S. aureus RN4220 (wild type)
Procedure: as §1

[11] = tested on: S. aureus RN4220 (pE194-fabI); assay: Overexpression assay, MIC for fabI-overexpressing S. aureus RN4220 (pE194-fabI); type: cell-based; settings: Staphylococcus aureus, read-out: MIC S. aureus (pE194-fabI)
Procedure: as §1, §2

[12] = tested on: S. aureus RN4220 (pE194); assay: Overexpression assay, MIC for vector-containing S. aureus RN4220 (pE194); type: cell-based; settings: Staphylococcus aureus, read-out: MIC S. aureus (pE194)
Procedure: as §1, §2

[13] = tested on: S. pneumoniae KCTC 3932; assay: Inhibition of macromolecular biosynthesis (radiolabeled precursor incorporation) in S. pneumoniae; type: cell-based, Streptococcus pneumoniae; settings: drugs at 2 times the MIC
Procedure: (§5) To monitor the effects of compound 1 on lipid, DNA, RNA, protein, and cell wall biosynthesis, its effects on the incorporation of [1-^14C] acetate (50 mCi/mmol), [2-^14C] thymidine (59.8 mCi/mmol), [U-^14C] uridine (539 mCi/mmol), L-[U-^14C] leucine (306 mCi/mmol) or L-[U-^14C] isoleucine (329 mCi/mmol), and N-acetyl-D-[1-^14C] glucosamine (58.1 mCi/mmol) into S. aureus and S. pneumoniae were measured as described previously. S. aureus was exponentially grown to an A650 of 0.2 in Mueller–Hinton broth. S. pneumoniae was grown in tryptic soy broth supplemented with 5% sheep blood. […] An equal volume of DMSO solvent was added to the untreated control. After incubation with the radiolabeled precursors at 37°C for 1 h, followed by centrifugation, the cell pellets were washed twice with PBS buffer. After acetate incorporation, the total cellular lipids were extracted with chloroform-methanol-water. The incorporated radioactivity in the chloroform phase was measured by scintillation counting. For the other precursors, incorporation was terminated by adding 10% (w/v) TCA and cooling on ice for 20 min. The precipitated material was collected on Whatman GF/C glass microfiber filters, washed with TCA and ethanol, dried, and counted using a scintillation counter. The total counts incorporated at 1 h of incubation without inhibitors ranged from >7,000 for [U-^14C] uridine to <13,000 for [1-^14C] acetate. […] In all experiments, known antibacterial agents were included as positive controls.

[14] = tested on: S. aureus RN4220; assay: Inhibition of macromolecular biosynthesis (radiolabeled precursor incorporation) in S. aureus; type: cell-based, Staphylococcus aureus; settings: drugs at 2 times the MIC
Procedure: as §5

[15] = read-out: MIC E. coli EW1b (+) Ara
[16] = read-out: MIC E. coli EW1b (−) Ara
[17] = read-out: MIC E. coli EW1b(pBAD-fabI) (+) Ara
[18] = read-out: MIC E. coli EW1b(pBAD-fabI) (−) Ara
[19] = read-out: MIC E. coli EW1b(pBAD-fabK) (+) Ara
[20] = read-out: MIC E. coli EW1b(pBAD-fabK) (−) Ara
[21] = read-out: MIC E. coli EW1b(pBAD) (+) Ara
[22] = read-out: MIC E. coli EW1b(pBAD) (−) Ara
[23] = S. aureus FabI, read-out: IC50 saFabI

T1 sequence (P0AEK4 whole entry): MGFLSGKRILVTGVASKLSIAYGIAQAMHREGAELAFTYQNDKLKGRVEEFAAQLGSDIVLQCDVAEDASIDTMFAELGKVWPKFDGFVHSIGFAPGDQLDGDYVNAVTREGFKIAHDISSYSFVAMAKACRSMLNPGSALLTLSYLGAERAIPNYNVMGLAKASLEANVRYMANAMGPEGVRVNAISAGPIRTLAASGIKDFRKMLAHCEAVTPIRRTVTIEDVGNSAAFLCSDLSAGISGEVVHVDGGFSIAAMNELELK

CCCCC[C@H](CC(=O)NO)C(=O)N[C@H](C(=O)N1CCC[C@H]1CO)C(C)C [Actinonin]
MIC [1, 15]: 1 mg/L (≈ 2.59 µM) | MIC [1, 16]: 1 mg/L (≈ 2.59 µM) | MIC [2, 17]: 1 mg/L (≈ 2.59 µM) | MIC [2, 18]: 1 mg/L (≈ 2.59 µM) | MIC [3, 19]: 1 mg/L (≈ 2.59 µM) | MIC [3, 20]: 1 mg/L (≈ 2.59 µM) | MIC [4, 21]: 1 mg/L (≈ 2.59 µM) | MIC [4, 22]: 1 mg/L (≈ 2.59 µM)

CC1(C)S[C@@H]2[C@H](NC(=O)[C@H](N)c3ccccc3)C(=O)N2[C@H]1C(=O)O [Ampicillin]
MIC [1, 15]: 1 mg/L (≈ 2.86 µM) | MIC [1, 16]: 1 mg/L (≈ 2.86 µM) | MIC [2, 17]: > 125 mg/L | MIC [2, 18]: > 125 mg/L | MIC [3, 19]: > 125 mg/L | MIC [3, 20]: > 125 mg/L | MIC [4, 21]: > 125 mg/L | MIC [4, 22]: > 125 mg/L

C=CC(C)(C)C12C=C(O)C(=O)N3/C(=C/c4cnc[nH]4)C(=O)NC31Nc1ccccc12 (stereo not shown) [Compound 2, glandicolin A]
MIC [5]: 64 mg/L (≈ 159 µM) | IC50 [6]: 49.7 µM | MIC [7]: 64 mg/L (≈ 159 µM) | IC50 [8]: > 200 µM | IC50 [9]: 54.6 µM | MIC [10]: 64 mg/L (≈ 159 µM)

CC[C@H]1OC(=O)[C@H](C)[C@@H](O[C@H]2C[C@@](C)(OC)[C@@H](O)[C@H](C)O2)[C@H](C)[C@@H](O[C@@H]2O[C@H](C)C[C@H](N(C)C)[C@H]2O)[C@](C)(O)C[C@@H](C)C(=O)[C@H](C)[C@@H](O)[C@]1(C)O [Erythromycin, reference compound]
MIC [11]: 64 mg/L (≈ 87.2 µM) | MIC [12]: 64 mg/L (≈ 87.2 µM) | IC50 [9, 23]: > 100 µM | MIC [10]: 0.5 mg/L (≈ 0.681 µM)

CCn1cc(C(=O)O)c(=O)c2cc(F)c(N3CCNCC3)cc21 [Norfloxacin, reference compound]
Inhibition of precursor incorporation, [2-14C] Thymidine [13]: 83% | MIC [11]: 1 mg/L (≈ 3.13 µM) | MIC [12]: 1 mg/L (≈ 3.13 µM) | Inhibition of precursor incorporation, [2-14C] Thymidine [14]: 79% | IC50 [9, 23]: > 100 µM | MIC [10]: 1 mg/L (≈ 3.13 µM)

Cc1onc(-c2ccccc2)c1C(=O)N[C@@H]1C(=O)N2[C@@H]1SC(C)(C)[C@@H]2C(=O)O [Oxacillin, reference compound]
MIC [11]: 0.25 mg/L (≈ 0.623 µM) | MIC [12]: 0.25 mg/L (≈ 0.623 µM) | IC50 [9]: > 100 µM | MIC [10]: 0.25 mg/L (≈ 0.623 µM)

C/C=C/C/C=C/CCC(=O)[C@H]1O[C@H]1C(N)=O [cerulenin, reference compound]
Inhibition of precursor incorporation, [1-14C] Acetate [13]: 95%

O=C(N[C@H](CO)[C@H](O)c1ccc([N+](=O)[O-])cc1)C(Cl)Cl [chlorampenicol, chloramphenicol, reference compound]
Inhibition of precursor incorporation, L-[U-14C] Isoleucine [13]: 85% | Inhibition of precursor incorporation, L-[U-14C] Isoleucine [14]: 74%

CO[C@H]1/C=C/O[C@@]2(C)Oc3c(C)c(O)c4c(O)c(c(/C=N/N5CCN(C)CC5)c(O)c4c3C2=O)NC(=O)/C(C)=C\C=C\[C@H](C)[C@H](O)[C@@H](C)[C@@H](O)[C@@H](C)[C@H](OC(C)=O)[C@@H]1C [rifampin, reference compound]
Inhibition of precursor incorporation, [U-14C] Uridine [13]: 92% | Inhibition of precursor incorporation, [U-14C] Uridine [14]: 69%

CN[C@H](CC(C)C)C(=O)N[C@H]1C(=O)N[C@@H](CC(N)=O)C(=O)N[C@H]2C(=O)N[C@H]3C(=O)N[C@H](C(=O)N[C@H](C(=O)O)c4cc(O)cc(O)c4-c4cc3ccc4O)[C@H](O)c3ccc(c(Cl)c3)Oc3cc2cc(c3O[C@@H]2O[C@H](CO)[C@@H](O)[C@H](O)[C@H]2O[C@H]2C[C@](C)(N)[C@H](O)[C@H](C)O2)Oc2ccc(cc2Cl)[C@H]1O [vancomycin, reference compound]
Inhibition of precursor incorporation, N-Acetyl-D-[1-14C] Glucosamine [13]: 88% | Inhibition of precursor incorporation, N-Acetyl-D-[1-14C] Glucosamine [14]: 79%
